Measured values from US20010053796A1, “Delta-aminolevulinic acid for prevention and treatment of infection microorganisms and parasite” (priority 2000, published 2001).
In brackets after ≈: the same amount, converted by molar mass.

Key:
Vibrio anguillarum = assay: MIC assay by flat drug disc method; assay type: cell-based; details: prepared by the inventors
Description: (§1) Pathogenic index bacteria used in this experiment are Edwardsiella tard, Streptococcus sp., Staphylococcus sp., Staphylococcus epidermidis, Pseudomonas sp., Vibrio anguillarum which are collected from the marine fish farm nearby Yeosu. In solid culture, they were cultured in TSA (tryptic soy agar) supplemented with 0.2% NaCl flat media and in liquid culture, they were prepared by culturing in BHI broth for 24 hrs and setting the O.D. value as 1.0. δ-aminolevulinic acid used in this experiment were one on the market (Sigma) and one formulated by inventors of the present invention (Korean patent application No. 1998-41898). Each 0.167 g δ-aminolevulinic acid were dissolved in 1.0 mL sterilized distilled water was used as undiluted solution. 1.0 M δ-aminolevulinic acid was 2-fold diluted with BHI broth by stages up to 64-fold and prepared for test solution to examine pathogenic bacteria proliferation-prohibiting effect. […] In control group, instead of δ-aminolevulinic acid, BHI broth bacteria suspension were mixed with (1:1) and then observed with the same method above. MIC assay by δ-aminolevulinic acid for major pathogenic bacteria of marine cultivating fishes, Edwardsiella tard, Streptococcus sp., Staphylococcus sp., Staphylococcus epidermidis, Pseudomonas sp., Vibrio anguillarum was carried out by flat drug disc method. 100 μL of each bacteria in a culture solution was mixed with fixed amount of top agar and coated to TSA agar. 1.0 M δ-aminolevulinic acid solution was diluted by 2 folds in PBS and 10 μL of each dilution were absorbed to sterilized disc. After incubation at 23˜25° C. for 2˜3 days, antibacterial effect was indicated by measuring the size (mm) of clear zone. In control group, PBS was absorbed into disc instead of δ-aminolevulinic acid dilution solution with the same amount and observed. From the result of this experiment using δ-aminolevulinic acid on the market, proliferation-inhibiting effects of pathogenic bacteria according to δ-aminolevulinic acid concentration are shown in Table 2a (Edwardsiella tard) and Table 2b (Streptococcus sp.). Below 1/32 fold (31 mM) of δ-aminolevulinic acid dilution rate, proliferation of both bacteria was inhibited. […] The experimental result of δ-aminolevulinic acid prepared by the inventors has shown in Table 3 and no difference in effects from δ-aminolevulinic acid on the market.

Streptococcus sp. = assay: MIC assay by flat drug disc method; assay type: cell-based; details: line printed Staphylococcus sp. (first of two), prepared by the inventors
Description: as §1

Staphylococcus sp. = assay: MIC assay by flat drug disc method; assay type: cell-based; details: Staphylococcus sp. (second of two lines); prepared by the inventors
Description: as §1

Edwardsiella tarda = assay: MIC assay by flat drug disc method; assay type: cell-based; details: prepared by the inventors
Description: as §1

Iridovirus = assay: Treatment effect of virus-infected fish; assay type: in vivo, Pagrus major; details: for mortality during 10 days: 30 fish
Excerpt: In this present example, as carried out in Experiment 2 of Example 3, from the result that inhibition effect of virus infection in vitro by δ-aminolevulinic acid treatment was ascertained, fish whose diseases were in progress by virus infection, decrease in the mortality of infected fish body was ascertained when treated with δ-aminolevulinic acid. Pagrus major diagnosed by the PCR method among a school of Iridovirus-infected fish from a fish farm nearby Yeosu, 30 of each were separated and contained in […]. They were divided to group A, B, C and control group. Temporary changes in mortality was ascertained in 10 ppm δ-aminolevulinic acid-treated A group, 1.0 ppm δ-aminolevulinic acid-treated B group, 0.1 ppm δ-aminolevulinic acid-treated C group and untreated control group by using δ-aminolevulinic acid produced by the inventor. Each δ-aminolevulinic acid-treated group was treated 3 times in […] and 10 days results were reported. In the case of actual fish farms, the mortality by virus infection reaches up to 70%. However, as shown in the result of infected fish of Table 28, in the present experimental condition, cumulative mortality of infected fish without treatment has reached up to 50% until 10th day of experimental period. In δ-aminolevulinic acid-treated groups, low mortalities of 17%, 17% and 27% was shown in the condition of A, B and C groups during 10 days, respectively.

Birnavirus = assay: Treatment effect on eel disease of Birnavirus (field); assay type: in vivo; details: 0.1˜10 ppm added to the farm; after 3 weeks administration
Description: In the example, the experiment was carried out in the field at the Eel Aguacultural Farm, Gochang and Kunsan, in Chunbuk, Korea. Eels were dead by infection of Birnavirus, which was easely confirmed by microscopical or electron microscopical observation.
ALA, at the concentration range of 0.1˜10 ppm was added to the farm for 3 months. After 3 weeks administration, motality was decreased to less than 10% (1˜2kg).

`NCC(=O)CCC(=O)O` [δ-aminolevulinic acid] gave an MIC (Vibrio anguillarum) of 29.9 µg/mL (≈ 228 µM), an MIC (Streptococcus sp.) of 72.9 µg/mL (≈ 556 µM) and an MIC (Staphylococcus sp.) of 59.6 µg/mL (≈ 455 µM). For the same molecule, the MIC (Edwardsiella tarda) was 56 µg/mL (≈ 427 µM), the “Viable Fish number According to Elapsed days After Treatment” value (“Viable Fish number According” below) (Iridovirus; 0.1 ppm, day 0) was 30 and the “Viable Fish number According” value (Iridovirus; 0.1 ppm, day 1) was 25. The “Viable Fish number According” value (Iridovirus; 0.1 ppm, day 2) was 25, the “Viable Fish number According” value (Iridovirus; 0.1 ppm, day 3) was 23 and the “Viable Fish number According” value (Iridovirus; 0.1 ppm, day 4) was 23. The “Viable Fish number According” value (Iridovirus; 0.1 ppm, day 5) was 23, the “Viable Fish number According” value (Iridovirus; 0.1 ppm, day 6) was 22 and the “Viable Fish number According” value (Iridovirus; 0.1 ppm, day 7) was 22. The “Viable Fish number According” value (Iridovirus; 0.1 ppm, day 8) was 22, the “Viable Fish number According” value (Iridovirus; 0.1 ppm, day 9) was 22 and the “Viable Fish number According” value (Iridovirus; 0.1 ppm, day 10) was 22. The “Viable Fish number According” value (Iridovirus; 1.0 ppm, day 0) was 30, the “Viable Fish number According” value (Iridovirus; 1.0 ppm, day 1) was 28 and the “Viable Fish number According” value (Iridovirus; 1.0 ppm, day 2) was 26. The “Viable Fish number According” value (Iridovirus; 1.0 ppm, day 3) was 26, the “Viable Fish number According” value (Iridovirus; 1.0 ppm, day 4) was 26 and the “Viable Fish number According” value (Iridovirus; 1.0 ppm, day 5) was 25. The “Viable Fish number According” value (Iridovirus; 1.0 ppm, day 6) was 25, the “Viable Fish number According” value (Iridovirus; 1.0 ppm, day 7) was 25 and the “Viable Fish number According” value (Iridovirus; 1.0 ppm, day 8) was 25. For the same molecule, the “Viable Fish number According” value (Iridovirus; 1.0 ppm, day 9) was 25, the “Viable Fish number According” value (Iridovirus; 1.0 ppm, day 10) was 25 and the “Viable Fish number According” value (Iridovirus; 10 ppm, day 0) was 30. The “Viable Fish number According” value (Iridovirus; 10 ppm, day 1) was 28, the “Viable Fish number According” value (Iridovirus; 10 ppm, day 2) was 26 and the “Viable Fish number According” value (Iridovirus; 10 ppm, day 3) was 26. For the same molecule, the “Viable Fish number According” value (Iridovirus; 10 ppm, day 4) was 26, the “Viable Fish number According” value (Iridovirus; 10 ppm, day 5) was 26 and the “Viable Fish number According” value (Iridovirus; 10 ppm, day 6) was 26. For the same molecule, the “Viable Fish number According” value (Iridovirus; 10 ppm, day 7) was 25, the “Viable Fish number According” value (Iridovirus; 10 ppm, day 8) was 25 and the “Viable Fish number According” value (Iridovirus; 10 ppm, day 9) was 25. For the same molecule, the “Viable Fish number According” value (Iridovirus; 10 ppm, day 10) was 25, the “mortality during 10 days” value (Iridovirus; A group, 10 ppm) was 17% and the “mortality during 10 days” value (Iridovirus; B group, 1.0 ppm) was 17%. For the same molecule, the “mortality during 10 days” value (Iridovirus; C group, 0.1 ppm) was 27% and the mortality (Birnavirus) was “less than 10%”.
